According to US8927717B1, “Thiochromeno[2,3-c]quinolin-12-one derivatives, preparation method and application thereof” (National Defense Medical Center, priority 2014, dated 2015):

Key:
[1] = system: HCT-15; type: cell-based; settings: HCT-15; 10^−5 molar
[2] = system: HCT-116; type: cell-based; settings: HCT-116; 10^−5 molar
[3] = system: HS 578T; type: cell-based; settings: HS 578T; 10^−5 molar
[4] = system: SR; type: cell-based; settings: SR; 10^−5 molar
[5] = system: M14; type: cell-based; settings: M14; 10^−5 molar
[6] = system: MDA-MB-231/ATCC; type: cell-based; settings: MDA-MB-231/ATCC; 10^−5 molar
[7] = system: UO-31; type: cell-based; settings: UO-31; 10^−5 molar
[8] = system: SF-295; type: cell-based; settings: SF-295; 10^−5 molar
[9] = system: SF-539; type: cell-based; settings: SF-539; 10^−5 molar
[10] = system: OVCAR-3; type: cell-based; settings: OVCAR-3; 10^−5 molar
[11] = system: HOP-62; type: cell-based; settings: HOP-62; 10^−5 molar
[12] = system: HCC-2998; type: cell-based; settings: HCC-2998; 10^−5 molar
[13] = system: MOLT-4; type: cell-based; settings: MOLT-4; 10^−5 molar
[14] = system: IGROV1; type: cell-based; settings: IGROV1; 10^−5 molar
[15] = system: SK-OV-3; type: cell-based; settings: SK-OV-3; 10^−5 molar
[16] = system: SK-MEL-5; type: cell-based; settings: SK-MEL-5; 10^−5 molar
[17] = system: RXF 393; type: cell-based; settings: RXF 393; 10^−5 molar
[18] = system: CCRF-CEM; type: cell-based; settings: CCRF-CEM; 10^−5 molar
[19] = system: DU-145; type: cell-based; settings: DU-145; 10^−5 molar
[20] = system: ACHN; type: cell-based; settings: ACHN; 10^−5 molar
[21] = system: OVCAR-5; type: cell-based; settings: OVCAR-5; 10^−5 molar
[22] = system: NCI-H460; type: cell-based; settings: NCI-H460; 10^−5 molar
[23] = system: UACC-257; type: cell-based; settings: UACC-257; 10^−5 molar
[24] = system: K-562; type: cell-based; settings: K-562; 10^−5 molar
[25] = system: A498; type: cell-based; settings: A498; 10^−5 molar
[26] = system: UACC-62; type: cell-based; settings: UACC-62; 10^−5 molar
[27] = system: HL-60(TB); type: cell-based; settings: HL-60(TB); 10^−5 molar
[28] = system: NCI-H226; type: cell-based; settings: NCI-H226; 10^−5 molar
[29] = system: 60 cancer cell lines; experiment: NCI 60-cell screen, SRB, whole panel (mean, delta, range); type: cell-based; settings: 10^−5 molar
[30] = system: SNB-19; type: cell-based; settings: SNB-19; 10^−5 molar
[31] = system: RPMI-8226; type: cell-based; settings: RPMI-8226; 10^−5 molar
[32] = system: CAKI-1; type: cell-based; settings: CAKI-1; 10^−5 molar
[33] = system: NCI-H522; type: cell-based; settings: NCI-H522; 10^−5 molar
[34] = system: SNB-75; type: cell-based; settings: SNB-75; 10^−5 molar
[35] = system: A549/ATCC; type: cell-based; settings: A549/ATCC; 10^−5 molar
[36] = system: SN12C; type: cell-based; settings: SN12C; 10^−5 molar
[37] = system: MDA-MB-486; type: cell-based; settings: MDA-MB-486; 10^−5 molar
[38] = system: NCI-H23; type: cell-based; settings: NCI-H23; 10^−5 molar
[39] = system: OVCAR-4; type: cell-based; settings: OVCAR-4; 10^−5 molar
[40] = system: TK-10; type: cell-based; settings: TK-10; 10^−5 molar
[41] = system: COLO 205; type: cell-based; settings: COLO 205; 10^−5 molar
[42] = system: PC-3; type: cell-based; settings: PC-3; 10^−5 molar
[43] = system: MDA-MB-435; type: cell-based; settings: MDA-MB-435; 10^−5 molar
[44] = system: MCF7; type: cell-based; settings: MCF7; 10^−5 molar
[45] = system: NCI/ADR-RES; type: cell-based; settings: NCI/ADR-RES; 10^−5 molar
[46] = system: SF-268; type: cell-based; settings: SF-268; 10^−5 molar
[47] = system: BT-549; type: cell-based; settings: BT-549; 10^−5 molar
[48] = system: KM12; experiment: cells; type: cell-based; settings: KM12; 10^−5 molar
[49] = system: HT29; type: cell-based; settings: HT29; 10^−5 molar
[50] = system: OVCAR-8; type: cell-based; settings: OVCAR-8; 10^−5 molar
[51] = system: SW-620; type: cell-based; settings: SW-620; 10^−5 molar
[52] = system: MALME-3M; type: cell-based; settings: MALME-3M; 10^−5 molar
[53] = system: 786-0; type: cell-based; settings: 786-0; 10^−5 molar
[54] = system: SK-MEL-28; type: cell-based; settings: SK-MEL-28; 10^−5 molar
[55] = system: T-47D; type: cell-based; settings: T-47D; 10^−5 molar

Molecule `O=c1c2cc(Cl)ccc2sc2c(NC3CCCCC3)nc3ccccc3c12` [Compound N21, 10-Chloro-6-(cyclohexylamino)-12H-thiochromeno[2,3-c]quinolin-12-one] has a Growth percent [1] of 91.71%, a Growth percent [2] of 65.37% and a Growth percent [3] of 94.22%. The Growth percent [4] was 85.52%, the Growth percent [5] was 103.41% and the Growth percent [6] was 77.17%. It also gave a Growth percent [7] of 72.52%, a Growth percent [8] of 92.22% and a Growth percent [9] of 91.20%. The Growth percent [10] was 91.85%, the Growth percent [11] was 101.46% and the Growth percent [12] was 109.83%. It also gave a Growth percent [13] of 92.42%, a Growth percent [14] of 83.31% and a Growth percent [15] of 94.54%. It also gave a Growth percent [16] of 97.00%, a Growth percent [17] of 97.03% and a Growth percent [18] of 92.23%. The Growth percent [19] was 104.25%, the Growth percent [20] was 97.31% and the Growth percent [21] was 98.06%. The Growth percent [22] was 91.29%, the Growth percent [23] was 103.68% and the Growth percent [24] was 102.86%. The Growth percent [25] was 93.00%, the Growth percent [26] was 93.23% and the Growth percent [27] was 107.06%. For the same molecule, the Growth percent [28] was 93.26%, the “Growth percent, Delta” value ([29]; delta over panel) was 46.48% and the “Growth percent, Mean” value ([29]; mean over panel) was 92.62%. The “Growth percent, Range” value ([29]; range over panel) was 81.82%, the melting point was 196 to 197 °C and the Growth percent [30] was 106.72%. The Growth percent [31] was 94.56%, the Growth percent [32] was 72.76% and the Growth percent [33] was 83.95%. The Growth percent [34] was 81.91%, the Growth percent [35] was 85.28% and the Growth percent [36] was 89.12%. The Growth percent [37] was 108.92%, the Growth percent [38] was 91.11% and the Growth percent [39] was 72.10%. The Growth percent [40] was 127.96%, the Growth percent [41] was 103.96% and the Growth percent [42] was 75.02%. The Growth percent [43] was 106.98%, the Growth percent [44] was 46.14% and the Growth percent [45] was 95.91%. For the same molecule, the Growth percent [46] was 92.06%, the Growth percent [47] was 105.53% and the Growth percent [48] was 112.90%. It also gave a Growth percent [49] of 105.11%, a Growth percent [50] of 74.91% and a Growth percent [51] of 87.98%. The Growth percent [52] was 93.42%, the Growth percent [53] was 97.69% and the Growth percent [54] was 101.79%. The Growth percent [55] was 72.43%.
